# Test results reported in patent publication US5925369A, “Bis alkanoyl esters of carnitine having bactericidal, fungicidal and antiprotozoal activity” (priority 1996, dated 1999).
# Where two headings read alike, the source gives them in different places.
# Experiments:
# [1] = tested on: Tricophyton quinckeanum NCPF 309; experiment: In vivo antiinfective effect on topical mixed infection in mice; design: species or system BALB/c mice; key to T. quinckeanum: Not cured animals (fungal growth): +++: confluent fungal growth (from a 1ml skin homogenate); ++: semiconfluent fungal growth (from a 1ml skin homogenate); +: moderate fungal growth (from a 1ml skin homogenate); details: for T. quinckeanum: Cured animals: 5 animals/group
# Procedure: Male inbred BALB/c mice (C. RIVER), aged 6 weeks were used (5 animals per group).
# The animals were topically infected with pathogenic strains of Tricophyton (Tricophyton quinckeanum NCPF 309) and Staphylococcus (Staphylococcus aureus LC1).
# Suspensions of fungal microaleuriospores and bacteria were adjusted to a final concentration of 5.0×10^7 and 1.0×10^7 cells/ml, respectively. Volumes of 0.2 ml of each suspension were applied onto the upper posterior zone of the animals, which had previously been shaved and gently abraded with a scalpel blade until "glistening". Treatment started 30 hours after the inocula by administering 50 mg of each substance in a gel form (1% test article) on the infected skin once a day for 5 consecutive days. Two days following the last treatment, animals were sacrificed and infected tissue samples were collected. Following homogenization and appropriate dilution in medium, tissue samples were plated (in Mycobiotic agar and Mannitol Salt agar for fungi and bacteria, respectively) to selectively assess the growth of the pathogens. Fungal growth is evaluated by means of an arbitrary scale, while bacterial growth is evaluated by determining the CFUs (Colony Forming Units).
# Tr. mentagrophytes = experiment: MIC on dermatophytes; assay type: cell-based; details: Trichophyton mentagrophytes, read-out: Minimal Inhibitory Concentration
# Procedure: (§1) Mycelium fragments, micro and macroaleuriospores are harvested from 7-day fungal cultures grown at 30 ° C. in Potato Dextrose agar by washing them with Sabouraud broth and 0.5% Tween 80. After a coarse filtration and washing, the fungal suspension is resuspended in Yeast Nitrogen Base supplemented with asparagine and glucose (YNBs) to yield a final concentration of 1.0×10^5 infective units/ml in a microtiter plate. The substances (0.3 log dilutions in Y.N.B.s.) are added to the fungal suspensions in order to generate a range of final concentrations from 0.19 to 100 mcg/ml. The microtiter plates are then incubated at 30° C. for 96-120 hours.
# Tr. rubrum = experiment: MIC on dermatophytes; assay type: cell-based; details: Trichophyton rubrum, read-out: Minimal Inhibitory Concentration
# Procedure: as §1
# Microsporum canis = experiment: MIC on dermatophytes; assay type: cell-based; details: read-out: Minimal Inhibitory Concentration
# Procedure: as §1
# Tr. quinckeanum = experiment: MIC on dermatophytes; assay type: cell-based; details: Tr. quinckeanum NCPF 309, lab collection; read-out: Minimal Inhibitory Concentration
# Procedure: as §1
# Epidermoph. floccosum = experiment: MIC on dermatophytes; assay type: cell-based; details: read-out: Minimal Inhibitory Concentration
# Procedure: as §1
# Gram negative bacteria = experiment: MIC on Gram negative bacteria (all strains); assay type: cell-based; details: 5 strains
# Procedure: (§2) Bacterial suspensions are prepared from an overnight culture in Mueller-Hinton broth and are adjusted, in the same medium, to a final concentration of 5.0×10^4 cells/ml in each well of a 96-well microtiter plate. Substance dilutions (0.3 log) in Mueller-Hinton broth are added to the suspensions in order to have a range of final concentrations from 0.19 to 100 mcg/ml.
# (§3) Microtiters are then incubated at 37° C. for 18 hours. (See L. D. THRUPP, Susceptibility testing of antibiotics in liquid media, in: Antibiotics in laboratory medicine. V. LORIAN Ed., II edition, 4, 93-150, Williams & Wilkins, Baltimora, Md. 21202 U.S.A.).
# Klebsiella pneumoniae = experiment: MIC on Gram negative bacteria; assay type: cell-based; details: Klebsiella pneumoniae SG 5 II, clinical isolate; read-out: Minimal Inhibitory Concentration
# Procedure: as §2, §3
# Proteus sp. = experiment: MIC on Gram negative bacteria; assay type: cell-based; details: Proteus sp. SG 9 II, clinical isolate; read-out: Minimal Inhibitory Concentration
# Procedure: as §2, §3
# P. vulgaris = experiment: MIC on Gram negative bacteria; assay type: cell-based; details: Proteus vulgaris; P. vulgaris UM, lab collection; read-out: Minimal Inhibitory Concentration
# Procedure: as §2, §3
# K. oxytoca = experiment: MIC on Gram negative bacteria; assay type: cell-based; details: Klebsiella oxytoca; K. oxytoca 552, lab collection; read-out: Minimal Inhibitory Concentration
# Procedure: as §2, §3
# Pseudomonas aeruginosa = experiment: MIC on Gram negative bacteria; assay type: cell-based; details: Pseudomonas aeruginosa IDI 3530, clinical isolate (ulcer); read-out: Minimal Inhibitory Concentration
# Procedure: as §2, §3
# Fusarium sp. = experiment: MIC on filamentous fungi; assay type: cell-based; details: Fusarium sp. F 77, lab collection; read-out: Minimal Inhibitory Concentration
# Procedure: (§4) The conidia are collected from 72-hour cultures in Sabouraud agar by washing them with Sabouraud broth and 0.5% Tween 80. After a coarse filtration and washing, the resulting suspensions are adjusted to a final concentration of approx. 5.0×10^4 CFU/ml in a microtiter plate. The substances (0.3 log dilutions in Y.N.B.s.) are added to the fungal suspensions in order to generate a range of final concentrations from 0.19 to 100 mcg/ml. The microtiter plates are then incubated at 35° C. for 48-72 hours.
# Mucor mucedo = experiment: MIC on filamentous fungi; assay type: cell-based; details: ATCC7941; Mucor mucedo ATCC 7941, lab collection; read-out: Minimal Inhibitory Concentration
# Procedure: as §4
# Aspergillus fumigatus = experiment: MIC on filamentous fungi; assay type: cell-based; details: ATCC28212; Aspergillus fumigatus ATCC 28212, lab collection; read-out: Minimal Inhibitory Concentration
# Procedure: as §4
# Penicillium sp. = experiment: MIC on filamentous fungi; assay type: cell-based; details: Penicillium sp. 1302, lab collection; read-out: Minimal Inhibitory Concentration
# Procedure: as §4
# Aspergillus niger = experiment: MIC on filamentous fungi; assay type: cell-based; details: ATCC16404; Aspergillus niger ATCC 16404, lab collection; read-out: Minimal Inhibitory Concentration
# Procedure: as §4
# [2] = 50 mg/day of 1% gel, topical, 5 days
# [3] = Tr. mentagrophytes IDI D 1027, clinical isolate (impetiginous eczema, chin)
# [4] = Tr. mentagrophytes IDI D 1049, clinical isolate
# [5] = Tr. mentagrophytes IDI D 1101, clinical isolate (epidermatomycosis, face)
# [6] = Tr. mentagrophytes SG 3 I, clinical isolate (Tinea pedis)
# [7] = Tr. mentagrophytes SG 4 II, clinical isolate (Tinea cruris)
# [8] = Tr. mentagrophytes SG 5 III, clinical isolate (Tinea pedis)
# [9] = Tr. mentagrophytes SG 8 II, clinical isolate (Tinea cruris)
# [10] = Tr. rubrum IDI D 0222, clinical isolate (onychomycosis, left and right big toes)
# [11] = Tr. rubrum IDI D 0252, clinical isolate (impetigo, left arm; prior Rifocin)
# [12] = Tr. rubrum IDI D 0261, clinical isolate (dyshidrotic eczema, right foot)
# [13] = Tr. rubrum IDI D 1017, clinical isolate (onychomycosis, right big toe; prior Azolmen)
# [14] = Tr. rubrum IDI D 1150, clinical isolate (epidermophytosis; prior Gentalyn)
# [15] = Tr. rubrum IDI D 1155, clinical isolate
# [16] = Tr. rubrum SG 13 III, clinical isolate (Tinea pedis)
# [17] = Microsporum canis IDI D 0238, clinical isolate (tricophytosis, right arm; prior Nerisona)
# [18] = Microsporum canis IDI D 1011, clinical isolate (eczema, neck; prior Gentalyn and cortisone)
# [19] = Microsporum canis IDI D 1123, clinical isolate (epidermophytosis, back; prior Gentalyn)
# [20] = Microsporum canis IMM 3868, lab collection
# [21] = Epidermoph. floccosum IDI D 0011, clinical isolate (epidermophytosis, foot interdigital)
# [22] = Epidermoph. floccosum SG 3 III, clinical isolate
# [23] = Epidermoph. floccosum SG 6 II, clinical isolate (Tinea pedis)
Structure (SMILES),"T. quinckeanum: Cured animals [1, 2] [%]",MIC (Tr. mentagrophytes; [3]) [µg/mL],MIC (Tr. mentagrophytes; [4]) [µg/mL],MIC (Tr. mentagrophytes; [5]) [µg/mL],MIC (Tr. mentagrophytes; [6]) [µg/mL],MIC (Tr. mentagrophytes; [7]) [µg/mL],MIC (Tr. mentagrophytes; [8]) [µg/mL],MIC (Tr. mentagrophytes; [9]) [µg/mL],MIC (Tr. rubrum; [10]) [µg/mL],MIC (Tr. rubrum; [11]) [µg/mL],MIC (Tr. rubrum; [12]) [µg/mL],MIC (Tr. rubrum; [13]) [µg/mL],MIC (Tr. rubrum; [14]) [µg/mL],MIC (Tr. rubrum; [15]) [µg/mL],MIC (Tr. rubrum; [16]) [µg/mL],MIC (Microsporum canis; [17]) [µg/mL],MIC (Microsporum canis; [18]) [µg/mL],MIC (Microsporum canis; [19]) [µg/mL],MIC (Microsporum canis; [20]) [µg/mL],MIC (Tr. quinckeanum) [µg/mL],also measured
"CCCCCCCCCCCOC(=O)C[C@H](C[N+](C)(C)C)OC(=O)CC(C)C [ST 1103, isovaleryl L-carnitine undecyl ester methanesulfonate, reference compound]",80,12.5,12.5,12.5,12.5,12.5,12.5,12.5,12.5,25,12.5,12.5,12.5,3.12,12.5,25,12.5,12.5,12.5,6.25,"T. quinckeanum: Not cured animals (fungal growth) [1, 2]: +; MIC (Epidermoph. floccosum; [21]): 12.5 µg/mL; MIC (Epidermoph. floccosum; [22]): 25 µg/mL; MIC (Epidermoph. floccosum; [23]): 12.5 µg/mL; MIC (Gram negative bacteria; clinical isolates): 35 µg/mL; MIC (Gram negative bacteria; lab collection): 27.5 µg/mL; MIC (Klebsiella pneumoniae): 50 µg/mL; MIC (Proteus sp.): 50 µg/mL; MIC (P. vulgaris): 50 µg/mL; MIC (K. oxytoca): 12.5 µg/mL; MIC (Pseudomonas aeruginosa): 25 µg/mL; MIC (Fusarium sp.): 6.25 µg/mL; MIC (Mucor mucedo): 50 µg/mL; MIC (Aspergillus fumigatus): 12.5 µg/mL; MIC (Penicillium sp.): 12.5 µg/mL; MIC (Aspergillus niger): 12.5 µg/mL"
"CCCCCCCCCCC(=O)O[C@H](CC(=O)OCc1ccc(COC(=O)C[C@H](C[N+](C)(C)C)OC(=O)CCCCCCCCCC)cc1)C[N+](C)(C)C [ST 1226, bis(undecanoyl L-carnitine chloride)p-xylilene diester]",100,3.12,1.56,1.56,1.56,1.56,3.12,1.56,1.56,1.56,1.56,1.56,1.56,1.56,1.56,12.5,3.12,1.56,1.56,1.56,antifungal activity compared with ST 1103 ([1]; mixed topical infection): greater antinfungal activity than ST 1103; MIC (Epidermoph. floccosum; [21]): 12.5 µg/mL; MIC (Epidermoph. floccosum; [22]): 6.25 µg/mL; MIC (Epidermoph. floccosum; [23]): 6.25 µg/mL; MIC (Gram negative bacteria; clinical isolates): 35 µg/mL; MIC (Gram negative bacteria; lab collection): 26.2 µg/mL; MIC (Klebsiella pneumoniae): 50 µg/mL; MIC (Proteus sp.): 50 µg/mL; MIC (P. vulgaris): 50 µg/mL; MIC (K. oxytoca): 25 µg/mL; MIC (Pseudomonas aeruginosa): 50 µg/mL; MIC (Fusarium sp.): 3.12 µg/mL; MIC (Mucor mucedo): 25 µg/mL; MIC (Aspergillus fumigatus): 6.25 µg/mL; MIC (Penicillium sp.): 1.56 µg/mL; MIC (Aspergillus niger): 6.25 µg/mL
